In US20260062422A1 (Halda Therapeutics OpCo, Inc., priority 2022, published 2026):

How the values were obtained:
BRD4-BD1 = molecular target: T1, BRD4-BD1 (Homo sapiens, UniProt O60885); assay: bromoKdELECT assay for binding affinity to BRD4-BD1; settings: Table 6
T1 construct: made in house; host or cells: T7 phage grown in an E. coli host derived from BL21
Experimental: Compounds were tested using a bromoKdELECT assay. T7 phage strains displaying bromodomains were grown in parallel in 24-well blocks in an E. coli host derived from the BL21 strain. E. coli were grown to log-phase and infected with T7 phage from a frozen stock (multiplicity of infection=0.4) and incubated with shaking at 32° C. until lysis (90-150 minutes). The lysates were centrifuged (5,000×g) and filtered (0.2 μm) to remove cell debris. Streptavidin-coated magnetic beads were treated with biotinylated small molecule or acetylated peptide ligands for 30 minutes at room temperature to generate affinity resins for bromodomain assays. The liganded beads were blocked with excess biotin and washed with blocking buffer (SeaBlock (Pierce), 1% BSA, 0.05% Tween 20, 1 mM DTT) to remove unbound ligand and to reduce nonspecific phage binding. Binding reactions were assembled by combining bromodomains, liganded affinity beads, and test compounds in 1× binding buffer (17% SeaBlock, 0.33×PBS, 0.04% Tween 20, 0.02% BSA, 0.004% Sodium azide, 7.4 mM DTT). Test compounds were prepared as 1000× stocks in 100% DMSO. Kds were determined using an 11-point 3-fold compound dilution series with one DMSO control point. All compounds for Kd measurements are distributed by acoustic transfer (non-contact dispensing) in 100% DMSO. The compounds were then diluted directly into the assays such that the final concentration of DMSO was 0.09%. All reactions performed in polypropylene 384-well plates. Each was a final volume of 0.02 ml. The assay plates were incubated at room temperature with shaking for 1 hour and the affinity beads were washed with wash buffer (1×PBS, 0.05% Tween 20). The beads were then resuspended in elution buffer (1×PBS, 0.05% Tween […] non-biotinylated affinity ligand) and incubated at room temperature with shaking for 30 minutes. The bromodomain concentration in the eluates was measured by qPCR.

[1] = Cellular growth inhibition, T-Rex 293 SC cells with doxycycline (progesterone receptor isoform B induced), Example 45; format: cell-based; settings: progesterone receptor isoform B induced with 10 ng/mL doxycycline, 72 hours, CellTiter-Glo 2.0, Table 11
Experimental: (§1) The following types of cells were prepared for this experiment: (i) a T-Rex 293 cell line having increased expression of progesterone receptor isoform B protein due to exposure to doxycycline and (ii) a T-Rex 293 cell line lacking increased expression of progesterone receptor isoform B protein. Ability of the test compounds to inhibit proliferation of the foregoing cell types was evaluated according to the procedures set forth below.
(§2) The doxycycline-inducible progesterone receptor isoform B protein expressing cell line was established using the following protocol: T-Rex 293 cells were purchased from Invitrogen (Cat #R71007) and transfected using Lipofectamine 2000 with the wild-type progesterone receptor B protein sequence cloned into the pcDNA4/TO vector. Transfected cells were selected using 400 μg/mL Zeocin (Invitrogen Cat #R25001). Following selection, single clones were raised and maintained in Dulbecco's Modified Eagle Medium (DMEM) supplemented with 10% w/w Tetracycline-free fetal bovine serum (FBS) and 250 μg/mL Zeocin. Clones were analyzed for expression of progesterone receptor isoform B protein in the presence and absence of 10 ng/mL doxycycline (Sigma Cat #D9891), and a single doxycycline-inducible clone (hereinafter “SC”) was selected for use in downstream assays.
(§3) The SC cells were seeded on poly-D-lysine coated, black clear-bottom 384-well plates at 2500/well, in 25 μL Phenol Red Free Dulbecco's Modified Eagle Medium (DMEM) supplemented with 10% w/w charcoal-dextran treated fetal bovine serum (FBS) and 1% w/w pen-strep, with or without 10 ng/mL doxycycline. Pen-Strep is a commercially available mixture of penicillin G and streptomycin, which is used in mammalian cell culture media to prevent bacterial contamination. Phenol Red Free Dulbecco's Modified Eagle Medium (DMEM) supplemented with 10% w/w charcoal-dextran treated fetal bovine serum (FBS) and 1% w/w pen-strep, with or without 10 ng/mL doxycycline is herein referred to as Treatment Medium. Following seeding of cells in the plates, the plates were spun at 300×g for 30 seconds, then equilibrated to room temperature for 30 minutes, and then deposited in a humidified tissue culture incubator maintained at 37° C. with 5% CO2.
(§4) At 24 hours after seeding of the cells, dilutions of test compound were prepared in DMSO and dissolved in Treatment Medium, to achieve a final DMSO concentration of 0.5% w/w, thereby providing the Test Compound Solution. A 25 μL aliquot of the Test Compound Solution was added to cells in the well plates. An equal volume of a solution containing DMSO and Treatment Medium was used as a negative control. Following treatment of cells with Test Compound Solution or said equal volume of a solution containing DMSO and Treatment Medium, the plates were spun at 300×g for 30 seconds, and then left in an incubator for 72 hours.
(§5) At the end of the treatment duration, cell viability was quantified with CellTiter-Glo 2.0 reagent (Promega Cat #G9243). For this purpose, plates were equilibrated to room temperature for 30 minutes, and then 25 μL of CellTiter-Glo 2.0 reagent was added to cells in the plate wells. Plates were then agitated on a shaker for two minutes at 500 rpm and subsequently incubated at room temperature for 10 minutes. Following incubation, the plates were spun at 3000×g for 30 seconds, then sealed with an optical adhesive cover, and luminescence readings were measured with an EnVision Plate Reader (Perkin Elmer).
(§6) Data was normalized using zero luminescence for baseline. A four-parameter non-linear regression curve fit was applied to dose-response data in GraphPad Prism data analysis software to determine the half-maximal growth inhibitory concentration (GI50) for each test compound.

[2] = system: T-Rex 293 cell line SC cells lacking increased expression of progesterone receptor isoform B protein; assay: Cellular growth inhibition, T-Rex 293 SC cells without doxycycline, Example 45; format: cell-based; settings: T-Rex 293 SC cells not exposed to doxycycline, 72 hours treatment, CellTiter-Glo 2.0
Experimental: as §1, §2, §3, §4, §5, §6

For `Cc1sc2c(c1C)C(c1ccc(Cl)cc1)=N[C@@H](CC(=O)NCCN(C)c1ncc(C(=O)N[C@H]3C(C)(C)[C@H](Oc4ccc(C#N)c(Cl)c4)C3(C)C)cn1)c1nnc(C)n1-2` [Compound I-1, N-[3-(3-chloro-4-cyano-phenoxy)-2,2,4,4-tetramethyl-cyclobutyl]-2-[2-[[2-[(9S)-7-(4-chlorophenyl)-4,5,13-trimethyl-3-thia-1,8,11,12-tetrazatricyclo[8.3.0.02,6]trideca-2(6),4,7,10,12-pentaen-9-yl]acetyl]amino]ethyl-methyl-amino]pyrimidine-5-carboxamide], the Kd (BRD4-BD1) was 50 to 500 nM.

For `Cc1sc2c(c1C)C(c1ccc(Cl)cc1)=N[C@@H](CC(=O)NCCCN1CCN(CCCOC3CCN(c4ncc(C(=O)N[C@H]5C(C)(C)[C@H](Oc6ccc(C#N)c(Cl)c6)C5(C)C)cn4)CC3)CC1)c1nnc(C)n1-2` [Compound I-10], the Kd (BRD4-BD1) was 50 to 500 nM.

Work on `Cc1sc2c(c1C)C(c1ccc(Cl)cc1)=N[C@@H](CC(=O)NCCOCCOCCOCCOC1CCN(c3ncc(C(=O)N[C@H]4C(C)(C)[C@H](Oc5ccc(C#N)c(Cl)c5)C4(C)C)cn3)CC1)c1nnc(C)n1-2` [Compound I-11] yielded a Kd (BRD4-BD1) of 500 to 2500 nM.

For `Cc1sc2c(c1C)C(c1ccc(Cl)cc1)=N[C@H](CC(=O)NCCOCCOCCOCCOC1CCN(c3ncc(C(=O)N[C@H]4C(C)(C)[C@H](Oc5ccc(C#N)c(Cl)c5)C4(C)C)cn3)CC1)c1nnc(C)n1-2` [Compound I-13], the Kd (BRD4-BD1) was greater than 2500 nM.

In the case of `Cc1sc2c(c1C)C(c1ccc(Cl)cc1)=N[C@@H](CC(=O)NCCOCCOCCOCC1CCN(c3ncc(C(=O)N[C@H]4C(C)(C)[C@H](Oc5ccc(C#N)c(Cl)c5)C4(C)C)cn3)CC1)c1nnc(C)n1-2` [Compound I-17], the Kd (BRD4-BD1) is reported as 50 to 500 nM.

Work on `CCNC(=O)C[C@@H]1N=C(c2ccc(OCCCC#Cc3ncc(C(=O)N[C@H]4C(C)(C)[C@H](Oc5ccc(C#N)c(Cl)c5)C4(C)C)cn3)cc2)c2c(sc(C)c2C)-n2c(C)nnc21` [Compound I-83] yielded a GI50 [1] of less than 500 nM and a GI50 [2] of 500 to 1500 nM.

With `CCNC(=O)C[C@@H]1N=C(c2ccc(Oc3ncc(C(=O)N[C@H]4C(C)(C)[C@H](Oc5ccc(C#N)c(Cl)c5)C4(C)C)cn3)cc2)c2c(sc(C)c2C)-n2c(C)nnc21` [Compound I-84] the GI50 [1] was less than 500 nM and the GI50 [2] was 500 to 1500 nM.

In the case of `CCNC(=O)C[C@@H]1N=C(c2ccc(OC3CCN(C4CCN(c5ncc(C(=O)N[C@H]6C(C)(C)[C@H](Oc7ccc(C#N)c(Cl)c7)C6(C)C)cn5)CC4)C3)cc2)c2c(sc(C)c2C)-n2c(C)nnc21` (stereo partly drawn) [Compound I-85], the GI50 [1] is reported as less than 500 nM and the GI50 [2] is reported as 500 to 1500 nM.

In the case of `CCNC(=O)C[C@@H]1N=C(c2ccc(N(C3CC3)C3CN(CC4CCN(c5ncc(C(=O)N[C@H]6C(C)(C)[C@H](Oc7ccc(C#N)c(Cl)c7)C6(C)C)cn5)CC4)C3)cc2)c2c(sc(C)c2C)-n2c(C)nnc21` [Compound I-129], the GI50 [1] is reported as less than 500 nM and the GI50 [2] is reported as 500 to 1500 nM.

For `CCNC(=O)C[C@@H]1N=C(c2ccc(N(C)C3CC(OC4CCN(c5ncc(C(=O)N[C@H]6C(C)(C)[C@H](Oc7ccc(C#N)c(Cl)c7)C6(C)C)cn5)CC4)C3)cc2)c2c(sc(C)c2C)-n2c(C)nnc21` (stereo partly drawn) [Compound I-130], the GI50 [1] was less than 500 nM and the GI50 [2] was less than 500 nM.

For `Cc1sc2c(c1C)C(c1ccc(CC3CC(C4CCN(c5ncc(C(=O)N[C@H]6C(C)(C)[C@H](Oc7ccc(C#N)c(Cl)c7)C6(C)C)cn5)CC4)C3)cc1)=NC(Cc1ncco1)c1nnc(C)n1-2` (stereo partly drawn) [Compound I-136], the GI50 [1] was less than 500 nM and the GI50 [2] was greater than 3000 nM.

In the case of `Cc1sc2c(c1C)C(c1ccc(CC3CN(CC4CCN(c5ncc(C(=O)N[C@H]6C(C)(C)[C@H](Oc7ccc(C#N)c(Cl)c7)C6(C)C)cn5)CC4)C3)cc1)=N[C@@H](Cc1ncco1)c1nnc(C)n1-2` [Compound I-153], the GI50 [1] is reported as less than 500 nM and the GI50 [2] is reported as less than 500 nM.

`Cc1sc2c(c1C)C(c1ccc(C[C@H]3C[C@@H]([C@@H]4CCCN(c5ncc(C(=O)N[C@H]6C(C)(C)[C@H](Oc7ccc(C#N)c(Cl)c7)C6(C)C)cn5)C4)C3)cc1)=N[C@@H](Cc1ncco1)c1nnc(C)n1-2` [Compound I-161] showed a GI50 [1] of less than 500 nM and a GI50 [2] greater than 3000 nM.

In the case of `Cc1sc2c(c1C)C(c1ccc(OC3CN(CC4CCN(c5ncc(C(=O)N[C@H]6C(C)(C)[C@H](Oc7ccc(C#N)c(Cl)c7)C6(C)C)cn5)CC4)C3)cc1)=N[C@H](Cc1ncco1)c1nnc(C)n1-2` [Compound I-169], the GI50 [1] is reported as less than 500 nM and the GI50 [2] is reported as less than 500 nM.

Compound `Cc1sc2c(c1C)C(c1ccc(O[C@H]3CC[C@@]4(CCCN(c5ncc(C(=O)N[C@H]6C(C)(C)[C@H](Oc7ccc(C#N)c(Cl)c7)C6(C)C)cn5)C4)CC3)cc1)=N[C@@H](Cc1ncco1)c1nnc(C)n1-2` [Compound I-172] has a GI50 [1] of less than 500 nM and a GI50 [2] of 500 to 1500 nM.

In the case of `Cc1sc2c(c1C)C(c1ccc(N3CC(C4CCN(c5ncc(C(=O)N[C@H]6C(C)(C)[C@H](Oc7ccc(C#N)c(Cl)c7)C6(C)C)cn5)CC4)C3)cc1)=NC(Cc1ncco1)c1nnc(C)n1-2` (stereo partly drawn) [Compound I-209], the GI50 [1] is reported as less than 500 nM and the GI50 [2] is reported as 500 to 1500 nM.

Compound `Cc1sc2c(c1C)C(c1ccc(C3CC3C3CC4(CCN(c5ncc(C(=O)N[C@H]6C(C)(C)[C@H](Oc7ccc(C#N)c(Cl)c7)C6(C)C)cn5)CC4)C3)cc1)=N[C@@H](Cc1ncco1)c1nnc(C)n1-2` (stereo partly drawn) [Compound I-237] has a GI50 [1] of less than 500 nM and a GI50 [2] greater than 3000 nM.

Compound `Cc1sc2c(c1C)C(c1ccc(CCC3CC4(CCCN(c5ncc(C(=O)N[C@H]6C(C)(C)[C@H](Oc7ccc(C#N)c(Cl)c7)C6(C)C)cn5)C4)C3)cc1)=N[C@@H](Cc1ncco1)c1nnc(C)n1-2` [Compound I-241] has a GI50 [1] of less than 500 nM and a GI50 [2] of 500 to 1500 nM.

Work on `Cc1sc2c(c1C)C(c1ccc(C#CC3CC4(CCN(c5ncc(C(=O)N[C@H]6C(C)(C)[C@H](Oc7ccc(C#N)c(Cl)c7)C6(C)C)cn5)CC4)C3)cc1)=N[C@@H](Cc1ncco1)c1nnc(C)n1-2` [Compound I-267] yielded a GI50 [1] of less than 500 nM and a GI50 [2] of 500 to 1500 nM.

With `Cc1sc2c(c1C)C(c1ccc(N3CC(CC4CCN(c5ncc(C(=O)N[C@H]6C(C)(C)[C@H](Oc7ccc(C#N)c(Cl)c7)C6(C)C)cn5)CC4)C3)cc1)=N[C@@H](C)c1nnc(C)n1-2` [Compound I-270] the GI50 [1] was less than 500 nM and the GI50 [2] was 500 to 1500 nM.

For `Cc1sc2c(c1C)C(c1ccc(N3CC(C4CCN(c5ncc(C(=O)N[C@H]6C(C)(C)[C@H](Oc7ccc(C#N)c(Cl)c7)C6(C)C)cn5)CC4)C3)cc1)=N[C@@H](C)c1nnc(C)n1-2` [Compound I-271], the GI50 [1] was less than 500 nM and the GI50 [2] was 500 to 1500 nM.

`Cc1sc2c(c1C)C(c1ccc(OC3CC4(C3)CC3(CCN(c5ncc(C(=O)N[C@H]6C(C)(C)[C@H](Oc7ccc(C#N)c(Cl)c7)C6(C)C)cn5)CC3)C4)cc1)=N[C@@H](Cc1ncco1)c1nnc(C)n1-2` [Compound I-283] showed a GI50 [1] of less than 500 nM and a GI50 [2] greater than 3000 nM.
